The test system of one assay is MCF7. The experiment in a line: Antiproliferative activity against human MCF7 cells after 48 hrs by CCK-8 assay. The note with it: MCF7, 48 h.
Assay [1] has as its target T1, Protein deacetylase HDAC6 (Homo sapiens, UniProt Q9UBN7).
T1 sequence (Q9UBN7 whole entry): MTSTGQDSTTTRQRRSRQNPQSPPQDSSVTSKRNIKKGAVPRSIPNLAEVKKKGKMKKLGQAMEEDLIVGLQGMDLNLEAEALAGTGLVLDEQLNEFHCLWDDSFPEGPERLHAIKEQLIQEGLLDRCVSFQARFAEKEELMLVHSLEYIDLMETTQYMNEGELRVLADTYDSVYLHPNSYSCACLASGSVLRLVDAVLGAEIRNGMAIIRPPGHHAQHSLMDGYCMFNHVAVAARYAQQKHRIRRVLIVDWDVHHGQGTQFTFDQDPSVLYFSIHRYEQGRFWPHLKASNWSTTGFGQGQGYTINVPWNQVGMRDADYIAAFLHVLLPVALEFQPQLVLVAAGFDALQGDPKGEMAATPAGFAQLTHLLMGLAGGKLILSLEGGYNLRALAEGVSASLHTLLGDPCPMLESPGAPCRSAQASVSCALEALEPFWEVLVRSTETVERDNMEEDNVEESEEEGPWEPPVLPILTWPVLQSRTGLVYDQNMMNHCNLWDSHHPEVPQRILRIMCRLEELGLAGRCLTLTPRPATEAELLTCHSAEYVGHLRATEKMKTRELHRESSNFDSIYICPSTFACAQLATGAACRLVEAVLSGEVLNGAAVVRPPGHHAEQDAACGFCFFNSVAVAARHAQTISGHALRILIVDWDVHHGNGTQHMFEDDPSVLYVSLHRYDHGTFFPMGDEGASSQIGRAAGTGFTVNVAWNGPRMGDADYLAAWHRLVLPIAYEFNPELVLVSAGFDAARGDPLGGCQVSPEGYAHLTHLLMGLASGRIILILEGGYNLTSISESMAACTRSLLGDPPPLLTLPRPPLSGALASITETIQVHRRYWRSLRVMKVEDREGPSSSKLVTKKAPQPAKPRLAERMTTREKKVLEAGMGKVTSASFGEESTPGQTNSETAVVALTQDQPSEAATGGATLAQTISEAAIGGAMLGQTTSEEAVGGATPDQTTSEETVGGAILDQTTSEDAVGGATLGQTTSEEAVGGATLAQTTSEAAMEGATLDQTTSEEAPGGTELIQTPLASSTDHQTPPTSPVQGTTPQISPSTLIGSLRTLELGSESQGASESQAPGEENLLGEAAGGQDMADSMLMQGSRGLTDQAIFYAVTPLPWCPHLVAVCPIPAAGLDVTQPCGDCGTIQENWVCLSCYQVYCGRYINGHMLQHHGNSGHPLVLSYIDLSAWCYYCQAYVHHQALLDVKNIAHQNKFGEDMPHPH
The experiment in a line: Inhibition of HDAC6 (unknown origin) preincubated for 10 mins followed by Ac-Leu-GlyLys(Ac)-AMC substrate addition measured after 30 mins by fluorescence based assay.

pIC50: −log10 of the molar value.

For the compound `CCN1CCN(c2ccc(C(=O)Nc3n[nH]c4cc(-c5cccc(OC)c5F)ccc34)cc2)CC1`, the pIC50 in the assay on MCF7 was 7.39.
As to `CCCOc1cccc(-c2ccc3c(NC(=O)c4ccc(C(=O)NO)cc4)n[nH]c3c2)c1`, the values for the negative logarithm of the IC50 (pIC50) (in assay [1]; in the assay with MCF7) were 6.46 and under 4.00, respectively.
The like results for `O=C(NO)c1ccc(C(=O)Nc2n[nH]c3cc(-c4ccc(Cl)c(F)c4)ccc23)cc1` were, in that order, 7.01 and under 4.00.
The like results for `CCOc1cccc(-c2ccc3c(NC(=O)c4ccc(C(=O)NO)cc4)n[nH]c3c2)c1` were, in that order, 7.47 and 5.05.
In the same order, the values of `O=C(NO)c1ccc(C(=O)Nc2n[nH]c3cc(-c4cc(Cl)cc(Cl)c4)ccc23)cc1` are 6.53 and under 4.00.
Consider `COc1ccccc1-c1ccc2c(NC(=O)c3ccc(C(=O)NO)cc3)n[nH]c2c1`, for which the values for the negative logarithm of the IC50 (pIC50) (in assay [1]; in the assay on MCF7) were 7.40 and 4.55, respectively.
In the same order, the values of `O=C(NO)c1ccc(C(=O)Nc2n[nH]c3cc(-c4ccc(C(F)(F)F)cc4)ccc23)cc1` are 6.99 and under 4.00.
`COc1cccc(-c2ccc3c(NC(=O)c4ccc(C(=O)NO)cc4)n[nH]c3c2)c1F`: the pIC50 in assay [1] is 7.24; in the assay on MCF7 it was under 4.00.
As to `O=C(NO)c1ccc(C(=O)Nc2n[nH]c3cc(-c4cc(Cl)ccc4Cl)ccc23)cc1`, the negative logarithm of the IC50 (pIC50) in assay [1] is 6.75; with MCF7 it was under 4.00.
The like results for `O=C(NO)c1ccc(C(=O)Nc2n[nH]c3cc(-c4cccc(Cl)c4Cl)ccc23)cc1` were, in that order, 6.80 and under 4.00.
For `CC(C)Oc1cccc(-c2ccc3c(NC(=O)c4ccc(C(=O)NO)cc4)n[nH]c3c2)c1`, the figures for the negative-log IC50 (pIC50) (in assay [1]; with MCF7) were 7.11 and under 4.00, respectively.
In the same order, the values of `O=C(NO)c1ccc(C(=O)Nc2n[nH]c3cc(-c4cccc(OC(F)(F)F)c4)ccc23)cc1` are 6.66 and under 4.00.
As to `Cc1cc(C)cc(-c2ccc3c(NC(=O)c4ccc(C(=O)NO)cc4)n[nH]c3c2)c1`, the pIC50 in assay [1] was 6.60; in the assay on MCF7, under 4.00.
In the same order, the values of `COc1cc(OC)cc(-c2ccc3c(NC(=O)c4ccc(C(=O)NO)cc4)n[nH]c3c2)c1` are 6.62 and under 4.00.
For `COc1ccc(-c2ccc3c(NC(=O)c4ccc(C(=O)NO)cc4)n[nH]c3c2)cc1OC`, the pIC50 is 7.48 in assay [1] and 4.82 in the assay with MCF7.
The like results for `O=C(NO)c1ccc(C(=O)Nc2n[nH]c3cc(-c4ccccc4)ccc23)cc1` were, in that order, 7.42 and under 4.00.
Regarding `O=C(NO)c1ccc(C(=O)Nc2n[nH]c3cc(-c4cccc(Cl)c4)ccc23)cc1`, the pIC50 in assay [1] was 7.16; with MCF7, under 4.00.
The like results for `COc1ccc(F)cc1-c1ccc2c(NC(=O)c3ccc(C(=O)NO)cc3)n[nH]c2c1` were, in that order, 7.19 and under 4.00.
Take `O=C(NO)c1ccc(C(=O)Nc2n[nH]c3cc(-c4ccc(Cl)c(Cl)c4)ccc23)cc1`: the pIC50 in assay [1] is 6.83; in the assay with MCF7, under 4.00.
In the same order, the values of `COc1cccc(-c2ccc3c(NC(=O)c4ccc(C(=O)NO)cc4)n[nH]c3c2)c1` are 6.88 and under 4.00.
The like results for `O=C(NO)c1ccc(C(=O)Nc2n[nH]c3cc(-c4ccccc4F)ccc23)cc1` were, in that order, 7.19 and 4.35.
The like results for `O=C(NO)c1ccc(C(=O)Nc2n[nH]c3cc(-c4c(Cl)cccc4Cl)ccc23)cc1` were, in that order, 6.41 and under 4.00.
As to `O=C(NO)c1ccc(C(=O)Nc2n[nH]c3cc(-c4ccc(Cl)cc4)ccc23)cc1`, the negative logarithm of the IC50 (pIC50) in assay [1] was 6.55; with MCF7, under 4.00.
In the same order, the values of `O=C(NO)c1ccc(C(=O)Nc2n[nH]c3cc(-c4ccccc4Cl)ccc23)cc1` are 7.23 and 4.64.
Consider `COc1ccc(-c2ccc3c(NC(=O)c4ccc(C(=O)NO)cc4)n[nH]c3c2)cc1`, for which the negative-log IC50 (pIC50) in assay [1] is 7.39; in the assay with MCF7 it was 4.66.
For the compound `CCCCN(Cc1ccc(C(=O)NO)cc1)C(=O)Nc1ccccc1` [NEXTURASTAT A], in the assay with MCF7, the pIC50 is 5.85.

Values taken from ChEMBL document CHEMBL4184206, “Design, synthesis and evaluate of novel dual FGFR1 and HDAC inhibitors bearing an indazole scaffold” (Bioorg Med Chem, 2018).
